{"source": "patent US5252560A", "about": "“Cyclic imide derivatives, compositions and use” (Glaxo Inc., priority 1991, dated 1993)", "origin": "cited, not measured here", "test_system": "arthritis in a collagen-induced model", "conditions": "large doses; collagen-induced model in the mouse"}
{"substance": "TIMP: the natural inhibitor of collagenase", "values": [{"measurement": "severity of arthritis", "result": "decreases the severity of arthritis"}]}
